# Laboratory results: US10314825B2, “Agent for treatment of PBC” (KOWA COMPANY, LTD., priority 2017, dated 2019)
# Columns and labels:
# Assay type in all cases: in vivo, human
# [1] = tested on: patients with dyslipidemia showing a high level of TG being treated with ursodeoxycholic acid; assay: Changes in total bilirubin levels after 12 weeks in patients being treated with ursodeoxycholic acid (Example 2); details: 0.05 to 0.4 mg per day
# Protocol: (§1) Data of patients being treated with ursodeoxycholic acid (15 cases in total) were extracted from the data obtained in a clinical trial (8 tests with an administration period of 12 weeks or more) of Compound A, which had been performed for patients with dyslipidemia showing a high level of TG, the effects of Compound A for the ALP and the total bilirubin were investigated. Compound A was administered at a dose of 0.05 to 0.4 mg per day to Compound A group. Further, placebo was administered to a control group. Each compound was administered to Compound A group and a control group for 12 weeks, and changes in the levels of ALP before and after the administration are shown in Table 3 and FIG. 3, and changes in the levels of total bilirubin before and after the administration are shown in Table 4 and FIG. 4. Note that comparisons between the groups were investigated by using covariance analysis with baseline levels used as covariates.
# [2] = tested on: patients with dyslipidemia showing a high level of TG being treated with ursodeoxycholic acid; assay: Changes in ALP levels after 12 weeks in patients being treated with ursodeoxycholic acid (Example 2); details: 0.05 to 0.4 mg per day
# Protocol: as §1
# [3] = tested on: patients with dyslipidemia showing a high level of triglyceride (TG); assay: Changes in ALP levels after 12 weeks, clinical trial data (Example 1); details: for ALP level, Rate of change (LSmean): 12 weeks vs baseline
# Protocol: Compound A was administered at a dose of 0.05 to 0.4 mg per day to Compound A group. […] Note that comparisons between the groups were investigated by using covariance analysis with baseline levels used as covariates.
# [4] = tested on: patients with dyslipidemia showing a high level of triglyceride (TG); assay: Changes in total bilirubin levels after 12 weeks, clinical trial data (Example 1); details: for total bilirubin level, Rate of change (LSmean): 12 weeks vs baseline
# Protocol: By using data (1965 cases in total) obtained in a clinical trial (8 tests with an administration period of 12 weeks or more) of Compound A, which had been performed for patients with dyslipidemia showing a high level of triglyceride (TG), the effects of Compound A for ALP and total bilirubin were investigated. Compound A was administered at a dose of 0.05 to 0.4 mg per day to Compound A group. […] Each compound was administered to Compound A group and a control group for 12 weeks, and changes in the levels of ALP before and after the administration are shown in Table 1 and FIG. 1, and changes in the levels of total bilirubin before and after the administration are shown in Table 2 and FIG. 2. Note that comparisons between the groups were investigated by using covariance analysis with baseline levels used as covariates.
# [5] = 0.05 to 0.4 mg per day, 12 weeks
# [6] = 100 mg/day micronized fenofibrate capsule formulation
# [7] = 106.6 mg/day solid dispersion fenofibrate tablet
SMILES,effect on level of total bilirubin [1],effect on level of ALP [2],"effect on level of ALP as compared with placebo [3, 5]","effect on level of ALP compared with fenofibrate at the maximum clinical dose (200 mg per day) ([3]; dose of 0.1 mg or more, 12 weeks)","effect on level of total bilirubin as compared with placebo [4, 5]","ALP level, Rate of change (LSmean) [3, 6]","ALP level, 12 Weeks ([3]; 100 mg/day micronized fenofibrate capsule formulation, 12 weeks, baseline 226.3)","ALP level, Rate of change (LSmean) [3, 7]","ALP level, 12 Weeks ([3]; 106.6 mg/day solid dispersion fenofibrate tablet, 12 weeks, baseline 235.3)","ALP level, 12 Weeks ([3]; 200 mg/day micronized fenofibrate capsule formulation, 12 weeks, baseline 222.5)","total bilirubin level, Rate of change (LSmean) [4, 6]","total bilirubin level, 12 Weeks ([4]; 100 mg/day micronized fenofibrate capsule formulation, 12 weeks, baseline 0.8)","total bilirubin level, Rate of change (LSmean) [4, 7]","total bilirubin level, 12 Weeks ([4]; 106.6 mg/day solid dispersion fenofibrate tablet, 12 weeks, baseline 0.8)","total bilirubin level, Rate of change (LSmean) ([4]; 200 mg/day micronized fenofibrate capsule formulation)","total bilirubin level, 12 Weeks ([4]; 200 mg/day micronized fenofibrate capsule formulation, 12 weeks, baseline 0.9)"
"CC[C@@H](Oc1cccc(CN(CCCOc2ccc(OC)cc2)c2nc3ccccc3o2)c1)C(=O)O [Compound A, (R)-2-[3-[[N-(benzoxazol-2-yl)-N-3-(4-methoxyphenoxy)propyl]aminomethyl]phenoxy] butyric acid]",decreases the levels of ALP and total bilirubin,decreases the levels of ALP and total bilirubin,decreases dose-dependently,decreases the level of ALP more strongly than the fenofibrate,decreases dose-dependently,–,–,–,–,–,–,–,–,–,–,–
CC(C)OC(=O)C(C)(C)Oc1ccc(C(=O)c2ccc(Cl)cc2)cc1 [fenofibrate],–,–,–,–,–,−11.1,198.7 IU/L,−14.7,198.8 IU/L,182.5 IU/L,−5.2,0.7 mg/dL,−4.2,0.7 mg/dL,−9.3,0.7 mg/dL
